Results from ChEMBL document CHEMBL1201862, “PubChem BioAssay data set” (2004).
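Exposure lasted 48 hours, with cells grown in 96-well plates and compounds tested at five concentrations. GI50 = concentration required for 50% inhibition of growth.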 Calls of active or inactive are those of the source. Rule as the data show it: active = GI50 up to about 1.1 µM and inactive = higher.

Legend:
Experiment in all cases: NCI-60 cell line screen, 48 h
[1] = tested on: 786-0
[2] = tested on: A498
[3] = tested on: A549
[4] = tested on: ACHN
[5] = tested on: CAKI-1
[6] = tested on: CCRF-CEM
[7] = tested on: COLO 205
[8] = tested on: DU-145
[9] = tested on: EKVX
[10] = tested on: HCC 2998
[11] = tested on: HCT-116
[12] = tested on: HCT-15
[13] = tested on: HL-60
[14] = tested on: HOP-62
[15] = tested on: HOP-92
[16] = tested on: HT-29
[17] = tested on: Hs-578T
[18] = tested on: IGROV-1
[19] = tested on: K562
[20] = tested on: KM12
[21] = tested on: LOX IMVI
[22] = tested on: M14
[23] = tested on: MCF7
[24] = tested on: MDA-MB-231
[25] = tested on: MDA-MB-435
[26] = tested on: MDA-N
[27] = tested on: MOLT-4
[28] = tested on: Malme-3M
[29] = tested on: NCI-H226
[30] = tested on: NCI-H23
[31] = tested on: NCI-H460
[32] = tested on: NCI-H522
[33] = tested on: NCI/ADR-RES
[34] = tested on: OVCAR-3
[35] = tested on: OVCAR-4
[36] = tested on: OVCAR-5
[37] = tested on: OVCAR-8
[38] = tested on: PC-3
[39] = tested on: RPMI-8226
[40] = tested on: RXF 393
[41] = tested on: SF-268
[42] = tested on: SF-295
[43] = tested on: SF-539
[44] = tested on: SK-MEL-28
[45] = tested on: SK-MEL-2
[46] = tested on: SK-MEL-5
[47] = tested on: SK-OV-3
[48] = tested on: SN12C
[49] = tested on: SNB-19
[50] = tested on: SNB-75
[51] = tested on: SR
[52] = tested on: SW-620
[53] = tested on: T47D
[54] = tested on: TK-10
[55] = tested on: U-251
[56] = tested on: UACC-257
[57] = tested on: UACC-62
[58] = tested on: UO-31
[59] = tested on: BT-549

CCOC(=O)CCC(NC(=O)c1ccc(Oc2nc3ccccc3nc2-c2ccccc2)cc1)C(=O)OCC (stereo unspecified)
GI50 [1]: 3.67 µM (inactive)
GI50 [2]: > 50.1 µM (inactive)
GI50 [3]: 37.8 µM (inactive)
GI50 [4]: 7.35 µM (inactive)
GI50 [5]: 19.5 µM (inactive)
GI50 [6]: > 100 µM (inactive)
GI50 [7]: > 100 µM (inactive)
GI50 [8]: 41 µM (inactive)
GI50 [9]: 57.9 µM (inactive)
GI50 [10]: > 100 µM (inactive)
GI50 [11]: 12.9 µM (inactive)
GI50 [12]: > 100 µM
GI50 [13]: > 100 µM (inactive)
GI50 [14]: 11.2 µM (inactive)
GI50 [15]: 5.51 µM (inactive)
GI50 [16]: 2.48 µM (inactive)
GI50 [17]: 7.08 µM (inactive)
GI50 [18]: 35.4 µM (inactive)
GI50 [19]: > 60.4 µM (inactive)
GI50 [20]: 33.3 µM (inactive)
GI50 [21]: 43.7 µM (inactive)
GI50 [22]: > 62.1 µM (inactive)
GI50 [23]: > 100 µM (inactive)
GI50 [24]: 10.6 µM (inactive)
GI50 [25]: > 52.1 µM (inactive)
GI50 [26]: 45 µM (inactive)
GI50 [27]: > 100 µM (inactive)
GI50 [28]: 12.7 µM (inactive)
GI50 [29]: 13.2 µM (inactive)
GI50 [30]: 17.4 µM (inactive)
GI50 [31]: > 80.4 µM (inactive)
GI50 [32]: 11.3 µM (inactive)
GI50 [33]: 6.34 µM (inactive)
GI50 [34]: 15.4 µM (inactive)
GI50 [35]: 6.55 µM (inactive)
GI50 [36]: > 55 µM (inactive)
GI50 [37]: 3.55 µM (inactive)
GI50 [38]: 92.9 µM (inactive)
GI50 [39]: 37.6 µM (inactive)
GI50 [40]: 20.1 µM (inactive)
GI50 [41]: 6.79 µM (inactive)
GI50 [42]: 23.1 µM (inactive)
GI50 [43]: 3.6 µM (inactive)
GI50 [44]: 50.6 µM (inactive)
GI50 [45]: 31.5 µM (inactive)
GI50 [46]: > 100 µM (inactive)
GI50 [47]: 27.9 µM (inactive)
GI50 [48]: 30.3 µM (inactive)
GI50 [49]: 22 µM (inactive)
GI50 [50]: 8.85 µM (inactive)
GI50 [51]: > 29.8 µM (inactive)
GI50 [52]: > 100 µM (inactive)
GI50 [53]: > 29.8 µM (inactive)
GI50 [54]: 17.5 µM (inactive)
GI50 [55]: 15.1 µM (inactive)
GI50 [56]: > 100 µM (inactive)
GI50 [57]: 32.7 µM (inactive)
GI50 [58]: 34 µM (inactive)

C/C=C1\NC(=O)[C@H](Cc2ccccc2)NC(=O)[C@@H](C(C)C)NC(=O)[C@@H]([C@@H](C)CC)NC(=O)[C@H](NC(=O)[C@H](NC(=O)[C@H](CCCN)NC(=O)[C@H]2CCCN2C(=O)[C@H](NC(=O)[C@@H](NC(=O)[C@@H](NC(=O)[C@H](NC(=O)CCCC(C)C)C(C)C)[C@@H](C)O)C(C)C)C(C)C)[C@@H](C)CC)[C@@H](C)OC(=O)[C@H](C(C)C)NC1=O
GI50 [1]: 1.74 µM (inactive)
GI50 [59]: 3.44 µM (inactive)
GI50 [6]: 2.86 µM (inactive)
GI50 [9]: 0.265 µM (active)
GI50 [13]: 39.4 µM (inactive)
GI50 [14]: 1.76 µM (inactive)
GI50 [18]: 1.44 µM (inactive)
GI50 [19]: 3.59 µM (inactive)
GI50 [21]: 3.64 µM (inactive)
GI50 [22]: 1.38 µM (inactive)
GI50 [23]: 0.461 µM (active)
GI50 [25]: 1.14 µM (inactive)
GI50 [27]: 12.1 µM (inactive)
GI50 [28]: 2 µM (inactive)
GI50 [29]: 2.23 µM (inactive)
GI50 [30]: 4.2 µM (inactive)
GI50 [31]: 1.52 µM (inactive)
GI50 [32]: 3.71 µM (inactive)
GI50 [33]: 3.04 µM (inactive)
GI50 [34]: 1.36 µM (inactive)
GI50 [35]: 0.863 µM (active)
GI50 [36]: 1.63 µM (inactive)
GI50 [37]: 4.63 µM (inactive)
GI50 [40]: 3.1 µM (inactive)
GI50 [41]: 1.42 µM (inactive)
GI50 [42]: 1.69 µM (inactive)
GI50 [43]: 1.69 µM (inactive)
GI50 [44]: 1.5 µM (inactive)
GI50 [45]: 2.31 µM (inactive)
GI50 [46]: 0.456 µM (active)
GI50 [48]: 2.64 µM (inactive)
GI50 [49]: 0.347 µM (active)
GI50 [51]: 14.4 µM (inactive)
GI50 [52]: 0.344 µM (active)
GI50 [54]: 1.85 µM (inactive)
GI50 [55]: 0.344 µM (active)
GI50 [57]: 1.42 µM (inactive)
GI50 [58]: 2.1 µM (inactive)
